Experimental data reported in US9566252B2, “Method for the alleviation of dyspareunia in women” (HORMOS MEDICAL LTD., priority 2000, dated 2017).
Like-named read-outs stand apart in the source and are kept apart here. Blank lines part the entries; values can stand above or below the molecule they belong to.

Tests used:
[1] = clinical studies
Description: (§1) Tolerability and pharmacokinetics were also assessed.

endometrium = conditions: for Increase in thickness of the endometrium, average: statistically not significant
Description: as §1

vaginal dryness = test: Vaginal dryness symptoms by visual analogue scale (subjective estimates); format: in vivo, healthy postmenopausal female volunteers; conditions: FIG. 2; for Effect on vaginal dryness, individuals' subjective estimate (visual analogue scale): change pre-treatment to 3 months, all ospemifene dosage levels (30, 60, 90 mg daily), raloxifene 60 mg daily
Description: The vaginal dryness symptoms were also assessed by using a visual analogue scale where the volunteers themselves recorded their subjective estimates. The scale is based on a 100-mm line on paper. The left end represents no symptom and the right end the worst possible symptom. The change from pre-treatment to 3 months estimates was assessed and considered to be indicative of the treatment efficacy.

vaginal epithelium = conditions: for Change in maturity index for superficial cells (MI 3), mean: index 100 full estrogen, index 0 no estrogenicity; for Change in maturity index for parabasal cells (MI 1), mean: index 100 no estrogenicity, index 0 full estrogen; for Pathological changes in cervical smear samples: 3 months' treatment, any sample; for Change from baseline to post-treatment in karyopyknosis index for superficial cells, individual subjects: ospemifene 30, 60, 90 mg daily, raloxifene 60 mg daily, all cases except one
Description: Raloxifene (60 mg daily) was used as reference. […] There were 29 volunteers at each dose level, as well as in the raloxifene group. Ospemifene was administered in gelatine capsules containing either 30, 60 or 90 mg of ospemifene. […] The vaginal epithelium was assessed by karyopyknosis index which is a well known assessment method among the skilled persons. In this method, the vaginal fraction of the cervical smears is estimated as the percentage of the number of cells from different layers: the parabasal cell layer; the intermediate cell layer; and the superficial cell layer. Estrogenicity is seen by a shift towards superficial cell fraction. […] Samples were taken before and after the treatment (at 3 months).

sexual activity = conditions: of 70 patients followed up for 6 weeks
Source text: In the clinical study, where the effects of ospemifene on quality of life and cardiovascular parameters were studied, the patients were asked for sexual activity. The questionnaire included “worsening” or “no effect” on sexual activity. Improvement on sexual activity was not asked. When 70 patients had been followed up for 6 weeks, 27 of them had spontaneously reported to the investigators increased sexual activity. Similar reports were independently obtained from different centers of the study.

[2] = 30 mg daily perorally, 3 months
[3] = 60 mg daily perorally, 3 months
[4] = 90 mg daily perorally, 3 months

SMILES: OCCOc1ccc(/C(=C(/CCCl)c2ccccc2)c2ccccc2)cc1 [Ospemifene, (deaminohydroxy)toremifene]
Tolerability [1]: excellent tolerability
Increase in thickness of the endometrium, average (endometrium; 30 mg daily, 3 months): 0.2 mm
Increase in thickness of the endometrium, average (endometrium; 60 mg daily, 3 months): 0.5 mm
Increase in thickness of the endometrium, average (endometrium; 90 mg daily, 3 months): 0.5 mm
Estrogenic effect on endometrial histology (endometrium; 30, 60, 90 mg daily, 3 months): weak estrogenic effect
Malignant findings in the endometrium (endometrium; 30, 60, 90 mg daily, 3 months): no malignant findings
Measured values of endometrial thickness (endometrium; 30, 60, 90 mg daily, all measured values): smaller than 8 mm
Effect on vaginal dryness, comparison of dose levels (vaginal dryness; 60 mg daily, 3 months): best result
Effect on vaginal dryness, individuals' subjective estimate (visual analogue scale) (vaginal dryness): clear decreasing effect
Change in maturity index for superficial cells (MI 3), mean (vaginal epithelium; [2]): +12.4
Change in maturity index for parabasal cells (MI 1), mean (vaginal epithelium; [2]): −40
Change in maturity index for superficial cells (MI 3), mean (vaginal epithelium; [3]): +5.5
Change in maturity index for parabasal cells (MI 1), mean (vaginal epithelium; [3]): −26
Change in maturity index for superficial cells (MI 3), mean (vaginal epithelium; [4]): +12.5
Change in maturity index for parabasal cells (MI 1), mean (vaginal epithelium; [4]): −48
Pathological changes in cervical smear samples (vaginal epithelium): No pathological changes
Change from baseline to post-treatment in karyopyknosis index for superficial cells, individual subjects (vaginal epithelium; 12 weeks' treatment): < 40
Estrogenic effect in the cervical smear (vaginal epithelium; 30, 60, 90 mg daily, 3 months): weak but statistically significant estrogenic effect
Effect on vaginal atrophy (vaginal epithelium; 30, 60 and 90 mg daily, 3 months, elderly female volunteers): significant decrease in vaginal atrophy
Increase in karyopyknosis index for superficial cells, single highest case (vaginal epithelium; one case in the 90 mg group, 12 weeks' treatment): 45
Patients spontaneously reporting increased sexual activity (sexual activity): 27

Pathological changes in cervical smear samples (vaginal epithelium): No pathological changes
SMILES: O=C(c1ccc(OCCN2CCCCC2)cc1)c1c(-c2ccc(O)cc2)sc2cc(O)ccc12 [Raloxifene, raloxifene, reference compound]
Effect on vaginal dryness, individuals' subjective estimate (visual analogue scale) (vaginal dryness): only a minor decrease
Change in maturity index for superficial cells (MI 3), mean (vaginal epithelium; [3]): −0.3
Change in maturity index for parabasal cells (MI 1), mean (vaginal epithelium; [3]): −2
Change from baseline to post-treatment in karyopyknosis index for superficial cells, individual subjects (vaginal epithelium; 12 weeks' treatment): no one in the raloxifene group (FIG. 1D) had a significant change
